Experimental findings from EPA's ToxValDB 9.5 (doi:10.2903/j.efsa.2010.1592) are described below.

Bounds are passed on as bounds.

One may read the NOAEL as the highest dose or exposure tested at which no adverse effect was seen.

One data set relates to Pimephales promelas. Conditions: chronic/long-term; duration: 32 days; other.
Another data set has as its system Apis mellifera. Conditions: acute; duration: 48 hours; dermal; mortality.
A further data set concerns Daphnia magna. To be noted: chronic/long-term; duration: 21 days; reproduction.
In another data set the test system is Canidae. To be noted: oral, Dog Other, histopathology: nonneoplastic.
Another data set deals with Anas platyrhynchos. Conditions: oral, mortality.
Another data set deals with Tagia sp. To be noted: acute; duration: 14 days; mortality.
The next data set concerns Oncorhynchus mykiss. To be noted: acute; duration: 96 hours; mortality.
The next data set deals with Typhlodromus pyri. The experiment in a line: LR50; higher = less toxic. Conditions: not reported; mortality.

For the compound `COc1cc(OC)n2nc(S(=O)(=O)Nc3c(Cl)ccc(C)c3Cl)nc2n1` [Metosulam], the NOEC was 4.24 mg/L with Pimephales promelas, 22 mg/kg-day with Colinus virginianus (reproduction developmental) and 2.5 mg/L in the data set on Daphnia magna. Also, the LD50 with Rattus norvegicus (acute, oral, mortality) is > 5000 mg/kg; with Colinus virginianus (acute, oral, mortality) it was > 2250 mg/kg; with Apis mellifera, > 100 µg/piece; in the data set on Anas platyrhynchos (acute, unspecified), > 2000 mg/kg. For the same compound, the NOAEL stood at 5 mg/kg-day in the data set with Rattus norvegicus (chronic, duration: 2 years, histopathology: nonneoplastic); 10 mg/kg-day in the data set on Canidae (chronic, duration: 1 years); 25 mg/kg-day in the data set on Canidae (short-term, duration: 2 weeks, diet). Besides, in the data set with Rattus norvegicus (chronic, histopathology: nonneoplastic), the NOEL was 30 mg/kg-day. Further, the LC50 in the data set with Colinus virginianus (acute, oral, diet, mortality) was > 1400 mg/kg-day; in the data set with Anas platyrhynchos (short-term, feed) it was > 1920 mg/kg-day; in the data set with Tagia sp., > 1000 mg/kg; in the data set on Oncorhynchus mykiss, > 29.3 µg/mL. In addition, the LR50 in the data set with Typhlodromus pyri was > 40 mg/kg.
